PMC12051030, “Identification of inhibitors of the Salmonella FraB deglycase, a drug target” (FEBS Open Bio, 2025)
Read-outs that look alike come from different tables or passages of the source.

How the values were obtained:
Salmonella tolC mutant = assay: Growth assay, Salmonella tolC mutant in wild‐type or fra island mutant background; format: cell-based; details: early finding; could not be replicated after multiple attempts with stocks from different suppliers (data not shown)
Text: We sought to examine the possibility that some of the hits in the biochemical HTS were not picked up in the cell‐based assays due to efficient efflux mechanisms in Salmonella. Because TolC is an outer membrane protein channel that is essential for the ability of seven of the 10 inner membrane drug‐efflux transporters to expel structurally diverse molecules, we generated a Salmonella tolC mutant and tested the 121 compounds that we purchased (Sabag‐Daigle, A. & Ahmer, B. M. M., unpublished results). The tests were conducted in parallel using the tolC mutant in a wild‐type or fra island mutant background; the latter lacks the entire fra locus and is incapable of catabolizing F‐Asn and forming 6‐P‐F‐Asp. Thus, any inhibitor specific for FraB (and which was being effluxed in the wild‐type) will inhibit the tolC mutant in a wild‐type but not the fra island mutant background. A caveat is that efflux of compounds may also be achieved via TolC‐independent drug‐efflux pumps.

[1] = target: His6‐FraB (Salmonella FraB deglycase) (Salmonella enterica subsp. enterica serovar Typhimurium, UniProt Q8ZLD0); assay: FraB-G6PD coupled assay, Michaelis–Menten analysis for K I and mode of inhibition; format: biochemical
Sequence of His6‐FraB (Salmonella FraB deglycase) (Q8ZLD0 entry or part of it): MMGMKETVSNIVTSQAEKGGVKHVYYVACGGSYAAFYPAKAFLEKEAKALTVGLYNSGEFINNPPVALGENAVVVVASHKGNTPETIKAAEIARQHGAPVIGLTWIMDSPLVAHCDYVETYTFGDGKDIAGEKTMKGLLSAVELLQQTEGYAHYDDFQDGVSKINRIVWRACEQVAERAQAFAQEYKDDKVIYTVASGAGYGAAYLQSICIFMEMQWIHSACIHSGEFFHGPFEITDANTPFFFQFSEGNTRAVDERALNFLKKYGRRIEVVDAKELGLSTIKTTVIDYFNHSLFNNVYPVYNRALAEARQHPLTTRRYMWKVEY
How it was run: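 His6-FraB (100 nM) coupled to G6PD with 0.5 mM NAD+ in 25 mM HEPES pH 8.0, 5 mM MgCl2, 10% DMSO at 20 °C; 8–12 6-P-F-Asp concentrations against 3–5 inhibitor levels.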

## CC(C)Cc1cc(-c2nn3c(-c4ccccc4Cl)nnc3s2)n[nH]1 [3470:A09, 3‐(2‐chlorophenyl)‐6‐[5‐(2‐methylpropyl)‐1H‐pyrazol‐3‐yl]‐[1,2,4]triazolo[3,4‐b][1,3,4]thiadiazole]
Salmonella tolC mutant
  inhibition of growth of Salmonella tolC, fra‐dependent: initially shown to inhibit the growth of Salmonella tolC in a fra‐dependent manner
[1]; 'this trend' = IC50 does not vary with [S]/K m, change evident only from 0.2 to 1.6× [S]/K m
  change of IC50 values with increasing [S]/K m: modest decrease
[1]; Fig. S12
  slope in plots of 1/IC50 vs. v o/V max: weakly positive
[1]; Trial 1, 6-P-F-Asp 15.7 µM, S/Km 0.37381, unit from Fig. S11 axis, read-out: IC50 (IC50 versus [S]/Km plots)
  IC50: 29.3 µM
[1]; Trial 1, 6-P-F-Asp 31.3 µM, S/Km 0.745238, unit from Fig. S11 axis, read-out: IC50 (IC50 versus [S]/Km plots)
  IC50: 18.8 µM
[1]; Trial 1, 6-P-F-Asp 62.5 µM, S/Km 1.488095, unit from Fig. S11 axis, read-out: IC50 (IC50 versus [S]/Km plots)
  IC50: 20.5 µM
[1]; Trial 1, 6-P-F-Asp 125 µM, S/Km 2.97619, unit from Fig. S11 axis, read-out: IC50 (IC50 versus [S]/Km plots)
  IC50: 20.2 µM
[1]; Trial 1, 6-P-F-Asp 250 µM, S/Km 5.952381, unit from Fig. S11 axis, read-out: IC50 (IC50 versus [S]/Km plots)
  IC50: 20.6 µM
[1]; Trial 1, 6-P-F-Asp 500 µM, S/Km 11.90476, unit from Fig. S11 axis, read-out: IC50 (IC50 versus [S]/Km plots)
  IC50: 19.4 µM
[1]; Trial 1, 6-P-F-Asp 750 µM, S/Km 17.85714, unit from Fig. S11 axis, read-out: IC50 (IC50 versus [S]/Km plots)
  IC50: 19.5 µM
[1]; Trial 1, 6-P-F-Asp 1000 µM, S/Km 23.80952, unit from Fig. S11 axis, read-out: IC50 (IC50 versus [S]/Km plots)
  IC50: 21.3 µM
[1]; Trial 1, 6-P-F-Asp 2000 µM, S/Km 47.61905, unit from Fig. S11 axis, read-out: IC50 (IC50 versus [S]/Km plots)
  IC50: 22.7 µM
[1]; Trial 1, 6-P-F-Asp 3000 µM, S/Km 71.42857, unit from Fig. S11 axis, read-out: IC50 (IC50 versus [S]/Km plots)
  IC50: 23.2 µM
[1]; Trial 2, 6-P-F-Asp 7.38 µM, S/Km 0.175714, unit from Fig. S11 axis, read-out: IC50 (IC50 versus [S]/Km plots)
  IC50: 19 µM
[1]; Trial 2, 6-P-F-Asp 15.7 µM, S/Km 0.37381, unit from Fig. S11 axis, read-out: IC50 (IC50 versus [S]/Km plots)
  IC50: 13.6 µM
[1]; Trial 2, 6-P-F-Asp 31.3 µM, S/Km 0.745238, unit from Fig. S11 axis, read-out: IC50 (IC50 versus [S]/Km plots)
  IC50: 12.4 µM
[1]; Trial 2, 6-P-F-Asp 62.5 µM, S/Km 1.488095, unit from Fig. S11 axis, read-out: IC50 (IC50 versus [S]/Km plots)
  IC50: 12.6 µM
[1]; Trial 2, 6-P-F-Asp 125 µM, S/Km 2.97619, unit from Fig. S11 axis, read-out: IC50 (IC50 versus [S]/Km plots)
  IC50: 11.4 µM
[1]; Trial 2, 6-P-F-Asp 250 µM, S/Km 5.952381, unit from Fig. S11 axis, read-out: IC50 (IC50 versus [S]/Km plots)
  IC50: 11.6 µM
[1]; Trial 2, 6-P-F-Asp 500 µM, S/Km 11.90476, unit from Fig. S11 axis, read-out: IC50 (IC50 versus [S]/Km plots)
  IC50: 11 µM
[1]; Trial 2, 6-P-F-Asp 750 µM, S/Km 17.85714, unit from Fig. S11 axis, read-out: IC50 (IC50 versus [S]/Km plots)
  IC50: 10.9 µM
[1]; Trial 2, 6-P-F-Asp 1000 µM, S/Km 23.80952, unit from Fig. S11 axis, read-out: IC50 (IC50 versus [S]/Km plots)
  IC50: 11.3 µM
[1]; Trial 2, 6-P-F-Asp 2000 µM, S/Km 47.61905, unit from Fig. S11 axis, read-out: IC50 (IC50 versus [S]/Km plots)
  IC50: 11.1 µM
[1]; Trial 2, 6-P-F-Asp 3000 µM, S/Km 71.42857, unit from Fig. S11 axis, read-out: IC50 (IC50 versus [S]/Km plots)
  IC50: 15.3 µM
[1]; from Michaelis–Menten analysis of FraB at different inhibitor concentrations, average and standard error from two measurements, read-out: K I
  Ki: 10.5 ± 3.5 µM
[1]; independent trial shown in Fig. S11 panels A-L, read-out: KI from α′ vs [I] plot
  Ki: 7 µM
[1]; kinetic analyses (Lineweaver‐Burk, α′ vs [I], IC50 vs [S]/K m, 1/IC50 vs v o/V max)
  mode of inhibition: mixed‐type uncompetitive
[1]; single trial shown in Fig. 5, read-out: IC50, mean and standard deviation of all IC50 values in IC50 vs [S]/Km plot
  IC50: 13 ± 3 µM
[1]; single trial shown in Fig. 5, read-out: KI from α′ vs [I] plot
  Ki: 14 µM
